Measured values taken from ChEMBL document CHEMBL6114992, “Design, synthesis, biological evaluation, and mechanism of action of new pyrazines as anticancer agents in vitro and in vivo” (Bioorg Med Chem, 2025).

Legend:
Assay type in all cases: functional, cell-based
[1] = system: KG-1; test: Antiproliferative activity against human KG-1 cells assessed as inhibition of cell growth incubated for 72 hrs by MTT assay; settings: KG-1, 72 h
[2] = system: U-937; test: Antiproliferative activity against human U-937 cells assessed as inhibition of cell growth incubated for 72 hrs by MTT assay; settings: U-937, 72 h
[3] = system: THP-1; test: Antiproliferative activity against human THP-1 cells assessed as inhibition of cell growth incubated for 72 hrs by MTT assay; settings: THP-1, 72 h
[4] = system: SK-OV-3; test: Antiproliferative activity against human SK-OV-3 cells assessed as inhibition of cell growth incubated for 72 hrs by MTT assay; settings: SK-OV-3, 72 h
[5] = Antiproliferative activity against human SK-OV-3/Taxol cells assessed as inhibition of cell growth incubated for 72 hrs by MTT assay; settings: SK-OV-3, 72 h

## CCc1nccnc1C(=O)/C=C/c1cc2c(cc1[N+](=O)[O-])OCO2
[1]
  IC50: 9.24 µM
[2]
  IC50: 3.39 µM
[3]
  IC50: 3.19 µM
[4]
  IC50: 4.29 µM
[5]
  IC50: 4.75 µM

## N#Cc1cccc(/C=C/C(=O)c2cnccn2)c1
[1]
  IC50: 5.87 µM
[2]
  IC50: 7.41 µM
[3]
  IC50: 9.69 µM
[4]
  IC50: 10.7 µM
[5]
  IC50: 13.7 µM

## Cc1nccnc1C(=O)/C=C/c1ccc(C(C)(C)C)cc1
[1]
  IC50: 44.1 µM
[2]
  IC50: 18.5 µM
[3]
  IC50: 27.2 µM
[4]
  IC50: 16.6 µM
[5]
  IC50: 14.2 µM

## Cc1nccnc1C(=O)/C=C/c1ccccc1
[1]
  IC50: 1.64 µM
[2]
  IC50: 5.43 µM
[3]
  IC50: 1.79 µM
[4]
  IC50: 5.17 µM
[5]
  IC50: 5.04 µM

## O=C(/C=C/c1ccc(-c2ccccc2)cc1)c1cnccn1
[1]
  IC50: > 50 µM
[2]
  IC50: 31.8 µM
[3]
  IC50: > 50 µM
[4]
  IC50: 16.6 µM
[5]
  IC50: 16.3 µM

## O=C(/C=C/c1ccc2c(c1)OC(F)(F)O2)c1cnccn1
[1]
  IC50: 17.3 µM
[2]
  IC50: 14.4 µM
[3]
  IC50: 20.3 µM
[4]
  IC50: > 50 µM
[5]
  IC50: > 50 µM

## COc1ccc(/C=C/C(=O)c2cnccn2)cc1
[1]
  IC50: 8.71 µM
[2]
  IC50: 15.2 µM
[3]
  IC50: 10.3 µM
[4]
  IC50: 21.9 µM
[5]
  IC50: 21.1 µM

## Cc1nccnc1C(=O)/C=C/c1csc2ccccc12
[1]
  IC50: 1.54 µM
[2]
  IC50: 1.5 µM
[3]
  IC50: 2.07 µM
[4]
  IC50: 4.78 µM
[5]
  IC50: 3.28 µM

## O=C(/C=C/c1csc2ccccc12)c1cnccn1
[1]
  IC50: 6.08 µM
[2]
  IC50: 14 µM
[3]
  IC50: 8.76 µM
[4]
  IC50: 14.1 µM
[5]
  IC50: 15.1 µM

## CCN(CC)c1ccc(/C=C/C(=O)c2nccnc2C)cc1
[1]
  IC50: 7.14 µM
[2]
  IC50: 6.4 µM
[3]
  IC50: 8.07 µM
[4]
  IC50: 3.39 µM
[5]
  IC50: 8.29 µM

## Cc1nccnc1C(=O)/C=C/c1ccc2c(c1)OC(F)(F)O2
[1]
  IC50: 6.52 µM
[2]
  IC50: 3.63 µM
[3]
  IC50: 5.89 µM
[4]
  IC50: 5.1 µM
[5]
  IC50: 6.11 µM

## Cc1nccnc1C(=O)/C=C/c1ccc(F)cc1F
[1]
  IC50: 6.15 µM
[2]
  IC50: 13.5 µM
[3]
  IC50: 17.6 µM
[4]
  IC50: 3.33 µM
[5]
  IC50: 2.99 µM

## CCc1nccnc1C(=O)/C=C/c1ccc(Cl)cc1
[1]
  IC50: 3.67 µM
[2]
  IC50: 2.3 µM
[3]
  IC50: 4.7 µM
[4]
  IC50: 7.08 µM
[5]
  IC50: 6.72 µM

## Cc1nccnc1C(=O)/C=C/c1ccc(Cl)cc1Cl
[1]
  IC50: 7.67 µM
[2]
  IC50: 4.66 µM
[3]
  IC50: 9.16 µM
[4]
  IC50: 6.39 µM
[5]
  IC50: 6.71 µM

## Cc1nccnc1C(=O)/C=C/c1ccccc1Cl
[1]
  IC50: 1.26 µM
[2]
  IC50: 2.36 µM
[3]
  IC50: 1.76 µM
[4]
  IC50: 3.08 µM
[5]
  IC50: 2.94 µM

## O=C(/C=C/c1ccccc1)c1cnccn1
[1]
  IC50: 10.6 µM
[2]
  IC50: 8.05 µM
[3]
  IC50: 15.3 µM
[4]
  IC50: > 50 µM
[5]
  IC50: > 50 µM

## O=C(/C=C/c1cccc(Cl)c1)c1cnccn1
[1]
  IC50: 9.97 µM
[2]
  IC50: 11.5 µM
[3]
  IC50: 10.3 µM
[4]
  IC50: 10.9 µM
[5]
  IC50: 10.6 µM

## Cc1ccc(/C=C/C(=O)c2cnccn2)cc1
[1]
  IC50: 11.4 µM
[2]
  IC50: 23 µM
[3]
  IC50: 19.9 µM
[4]
  IC50: 10.1 µM
[5]
  IC50: 16.6 µM

## Cc1nccnc1C(=O)/C=C/c1ccc(Cl)cc1
[1]
  IC50: 10.4 µM
[2]
  IC50: 2.96 µM
[3]
  IC50: 17 µM
[4]
  IC50: 9.75 µM
[5]
  IC50: 11.8 µM

## CCc1nccnc1C(=O)/C=C/c1ccc(C(F)(F)F)cc1
[1]
  IC50: 9.21 µM
[2]
  IC50: 5.78 µM
[3]
  IC50: 3.04 µM
[4]
  IC50: 5.92 µM
[5]
  IC50: 7.29 µM

## CCc1nccnc1C(=O)/C=C/c1ccccc1Br
[1]
  IC50: 3.58 µM
[2]
  IC50: 1.58 µM
[3]
  IC50: 4.57 µM
[4]
  IC50: 7.93 µM
[5]
  IC50: 8.35 µM

## Cc1nccnc1C(=O)/C=C/c1ccc(F)cc1
[1]
  IC50: 21.7 µM
[2]
  IC50: 26.1 µM
[3]
  IC50: 30.2 µM
[4]
  IC50: 30.7 µM
[5]
  IC50: 29.2 µM

## Cc1ccccc1/C=C/C(=O)c1nccnc1C
[1]
  IC50: 13 µM
[2]
  IC50: 2.55 µM
[3]
  IC50: 4.97 µM
[4]
  IC50: 2.59 µM
[5]
  IC50: 3.8 µM

## CC[C@@]1(O)C(=O)OCc2c1cc1n(c2=O)Cc2cc3ccccc3nc2-1 [CAMPTOTHECIN]
[4]
  IC50: 2.56 µM
